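Five concentrations, 48 hours, 96-well plates. The concentration for 50% growth inhibition is given as GI50.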 Activity calls are given as the source filed them. Cut-off read from the data, not from the text of the source: active = GI50 up to about 1.1 µM and inactive = higher.

Common to all, as to test: NCI-60 cell line screen, 48 h
The subject of test [1] is SNB-19.
In test [2] the test system is HOP-92.
Test [3] has as its system HT-29.
The test system of test [4] is NCI-H522.
The subject of test [5] is OVCAR-4.
Test [6] deals with OVCAR-5.
The test system of test [7] is HOP-62.
Test [8] concerns TK-10.
For test [9], the system named is EKVX.
In test [10] the test system is SK-OV-3.
In test [11] the test system is SF-539.
Test [12] deals with HCT-15.
The subject of test [13] is SNB-75.
Test [14] relates to CCRF-CEM.
Test [15] has as its system 786-0.
Test [16] deals with KM12.
Test [17] relates to MCF7.
Test [18] concerns MDA-MB-435.

Regarding `CC(N)Cc1ccc(Cl)c(Cl)c1` (configuration not stated), the GI50 in test [1] was > 96.6 µM (inactive); in test [2] it was 22.6 µM (inactive); in test [3] it was 24.3 µM (inactive); in test [4] it was 29.6 µM (inactive); in test [5], 67.8 µM (inactive); in [6], 30.1 µM (inactive). Further, the GI50 in test [7] is 39.5 µM (inactive); in test [8] it was 22.6 µM (inactive); in [9], 41.5 µM (inactive); in test [10] it was 74.8 µM (inactive); in [11], 12.4 µM (inactive); in test [12] it was 30 µM. Further, the GI50 in [13] is 23.3 µM (inactive); in test [14], 28.2 µM (inactive); in [15] it was 41.5 µM (inactive); in [16], 10.6 µM (inactive).

In the case of `N#CCN1CCCCCc2ccccc21`, the GI50 in test [1], in test [2], in test [3], in test [17], in test [5] and in [6] was > 100 µM (inactive) in each case. Moreover, the GI50 in test [7], in test [8], in test [9], in test [18], in test [10] and in [11] was > 100 µM (inactive) in each case. The GI50 in test [12] was greater than 100 µM; in test [13], > 100 µM (inactive); in [14], > 100 µM (inactive); in test [15], > 100 µM (inactive); in test [16] it was > 100 µM (inactive).

`COc1cc2cc3c4c(cc(OC)c(OC)c4c2cc1OC)CCN3C(=O)OCCN1CCNCC1`: the GI50 in test [1] is 21.9 µM (inactive); in test [2], 12.9 µM (inactive); in test [3], 12.6 µM (inactive); in [4], 16.6 µM (inactive); in test [5], 17.5 µM (inactive); in [6], 18 µM (inactive). Moreover, the GI50 is 17.1 µM (inactive) in test [7]; 15 µM (inactive) in test [8]; 15.1 µM (inactive) in test [9]; 17.9 µM (inactive) in test [10]; 15.1 µM (inactive) in [11]; 15.5 µM in [12]. Moreover, the GI50 in test [13] is 11.9 µM (inactive); in test [14], 18.4 µM (inactive); in [15], 11.6 µM (inactive); in test [16], 15.1 µM (inactive).

With `COc1ccc(C(=O)C(c2ccc(OC)cc2)C2(O)C(=O)Nc3ccc([N+](=O)[O-])cc32)cc1` (configuration not stated), the GI50 is > 100 µM (inactive) in [1]; 32.9 µM (inactive) in test [2]; > 100 µM (inactive) in test [3]; > 100 µM (inactive) in test [4]; > 100 µM (inactive) in test [5]; > 100 µM (inactive) in [6]. Further, the GI50 in test [7] was > 100 µM (inactive); in test [8], > 100 µM (inactive); in test [9] it was > 100 µM (inactive); in test [10], > 100 µM (inactive); in test [11] it was 11.3 µM (inactive); in [12], greater than 100 µM. Also, the GI50 in [13] was 32.3 µM (inactive); in test [14] it was > 100 µM (inactive); in test [15], > 100 µM (inactive); in test [16], > 100 µM (inactive).

Turning to `COC(=O)c1c2c(c(-c3ccccc3)c3c1-c1nc(Cl)ccc1CC3)CCc1ccc(Cl)nc1-2`, the GI50 is 64 µM (inactive) in test [1]; 42.2 µM (inactive) in [2]; > 100 µM (inactive) in test [3]; 77.1 µM (inactive) in test [4]; > 100 µM (inactive) in test [5]; > 100 µM (inactive) in test [6]. Besides, the GI50 in [7] is > 100 µM (inactive); in test [8], > 100 µM (inactive); in [9] it was 61.4 µM (inactive); in [10] it was > 100 µM (inactive); in test [11], 45.5 µM (inactive); in [12], greater than 100 µM. Also, the GI50 in test [13] is 32.3 µM (inactive); in test [14], > 100 µM (inactive); in test [15] it was > 100 µM (inactive); in test [16] it was > 100 µM (inactive).

For `C=CN1C(=O)OC[C@@H]1c1ccccc1`, the GI50 in test [1], in test [2], in [3], in test [4], in [5] and in test [6] was > 100 µM (inactive) each time. Moreover, the GI50 in [7] is > 100 µM (inactive); in [8] it was > 100 µM (inactive); in [9], > 100 µM (inactive); in test [10] it was > 100 µM (inactive); in [11] it was > 100 µM (inactive); in [12], 16.6 µM. The GI50 in test [13], in [14], in test [15] and in [16] was > 100 µM (inactive) throughout.

For `O=C1NC(O)n2c(=O)[nH]c(=O)n21` (configuration not stated), the GI50 in test [1], in test [2], in test [3], in test [4], in [5] and in test [6] was > 100 µM (inactive) each time. The GI50 in test [7] is > 100 µM (inactive); in test [8] it was > 100 µM (inactive); in test [9] it was > 100 µM (inactive); in [10], > 100 µM (inactive); in test [11], > 100 µM (inactive); in test [12], greater than 100 µM. In addition, the GI50 in [13], in test [14], in test [15] and in test [16] was > 100 µM (inactive) each time.

With `COC(=O)[C@@H]1CN(C(=O)c2ccccc2)C(=O)N1C(=O)OCc1ccccc1`, the GI50 in [1], in test [2], in test [3], in test [4], in test [17] and in [5] was > 100 µM (inactive) in each case. In addition, the GI50 in [6], in [7], in [8], in [9], in test [18] and in [10] was > 100 µM (inactive) each time. The GI50 in test [11] was > 100 µM (inactive); in [12] it was greater than 100 µM; in test [13] it was > 100 µM (inactive); in test [14] it was > 100 µM (inactive); in test [15], > 100 µM (inactive); in test [16], > 100 µM (inactive).

On to `COc1cccc(C=O)c1[O-].COc1cccc(C=O)c1[O-].[Zn+2]`, for which the GI50 in test [1] is > 100 µM (inactive); in [2], 21.9 µM (inactive); in test [3], 97.7 µM (inactive); in test [4] it was > 100 µM (inactive); in [5], 57.5 µM (inactive); in test [6], 53.7 µM (inactive). Moreover, the GI50 in [7] is 46.9 µM (inactive); in test [8], > 100 µM (inactive); in [9], 61.5 µM (inactive); in test [10], 36.6 µM (inactive); in test [11] it was 45.2 µM (inactive); in [12] it was 38 µM. The GI50 in test [13] was 42 µM (inactive); in test [14], 28.9 µM (inactive); in [15], 49 µM (inactive); in test [16], > 100 µM (inactive).

(Values after ChEMBL document CHEMBL1201862, “PubChem BioAssay data set” (2004).)
